Measured values from patent US7977120B2, “Fluorescent sensors for cellular amines” (The Curators of the University of Missouri, priority 2005, dated 2011).
“Also recorded” adds a separate entry of the source.

What was measured:
[1] = Titration of Sensor Ia with various analytes (UV-vis and fluorescence); type: binding; settings: for Isat/I0 (λex = 446 nm): fluorescence intensity at saturation from theoretical fit to binding isotherm; for Isat/I0 (λex = 484 nm) / Isat/I0 (λex = 495 nm): fluorescence intensity at saturation from theoretical fit; for Kn (association constant): fluorescence spectroscopy, λem = 505 nm, error ± 20%, triplicate titration; for Isat/I0 (λex = 484 nm) / Kn (association constant): λex = 484 nm; for binding affinity for sensor Ia (in words): compared with catecholamines
Experimental: (§1) One exemplary coumarin-based sensor, 2-(((5-(7-(diethylamino)-3-formyl-2-oxo-2H-chromen-4-yl)pentyl)(methyl)amino)methyl)phenylboronic acid, sensor Ia, has been examined spectrophotometrically by titration with dopamine under neutral aqueous conditions in which a reducing agent is included to suppress oxidation of the air-sensitive catechol group.
The titration conditions are 10 μM sensor Ia with 100 mM Na2S2O3, 50 mM HEPES, 20 mM NaCl, pH=7.0, and at 37° C. […] See also, Org. Lett. 2004, 6(21), 3727-3730, which is incorporated herein by reference.
Binding constants (Ka) are determined by fluorescence titrations.

[2] = Fluorescence titration of quinolone sensors with diaminopentane; type: binding; settings: Table 3; for Ka, Diaminopentane: 1:1 methanol-buffer
From the text: (§2) The present invention further discloses that the Quinolone-Dimer Sensors III can also provide detection for diamine analytes. The certain exemplary dimer sensors IIIa-g have been probed spectroscopically by UV-vis and fluorescence titration experiments. […] Moreover, by variation of the linker portion of the sensor III, useful selectivities for different length diamino-analytes have been achieved. First, the absorption spectra show trends similar to those observed with the coumarin sensors in which a large red shift in absorption maximum is observed upon addition of diamines to the sensors. […] As shown in FIG. 11(a), when sensor IIIg is titrated with diaminopropane, a 28 nm shift in absorbance is observed consistent with a shift from aldehyde to iminium ion forms. The red shift in absorption has been attributed to the hydrogen bond between the formed iminium ion and the carbonyl group of the chromophore. In fluorescence mode, by exciting the chromophore at 495 nm, a large increase in fluorescence was observed upon titration with the diamine (FIG. 11(b)).

[3] = UV-vis and fluorescence titration of quinolone sensors with diaminopropane; type: binding; settings: for Isat/I0, Diaminopropane / Ka, Diaminopropane: Table 3; for Ka, Diaminopropane: 1:1 methanol-buffer
From the text: (§3) The present invention further discloses that the Quinolone-Dimer Sensors III can also provide detection for diamine analytes. The certain exemplary dimer sensors IIIa-g have been probed spectroscopically by UV-vis and fluorescence titration experiments. […] Moreover, by variation of the linker portion of the sensor III, useful selectivities for different length diamino-analytes have been achieved.
(§4) First, the absorption spectra show trends similar to those observed with the coumarin sensors in which a large red shift in absorption maximum is observed upon addition of diamines to the sensors. […] As shown in FIG. 11(a), when sensor IIIg is titrated with diaminopropane, a 28 nm shift in absorbance is observed consistent with a shift from aldehyde to iminium ion forms. The red shift in absorption has been attributed to the hydrogen bond between the formed iminium ion and the carbonyl group of the chromophore. In fluorescence mode, by exciting the chromophore at 495 nm, a large increase in fluorescence was observed upon titration with the diamine (FIG. 11(b)). The fluorescence increase is fitted to a one-site binding isotherm which gave a binding constant of 6700 M^−1 with a maximum fluorescence increase at saturation (Isat/I0) of 6.6-fold.
(§5) Generally, the dimeric sensors were not as soluble as the monomeric derivatives, so binding studies were performed in 1:1 methanol:buffer (10 mM HEPES, pH=7.4). Water solubilizing groups, such as polyethylene groups, can be provided on the quinolone core in a straightforward synthetic manner. Binding constants and maximum fluorescence changes (Isat/I0) are provided in Table 4 for a few representative guests.

[4] = Fluorescence titration of quinolone sensors with butylamine; type: binding; settings: Table 3; for Ka, Butylamine: 1:1 methanol-buffer, error ±20%, duplicate titrations; for Isat/I0, Butylamine: maximum change in fluorescence from theoretical fit
[5] = Fluorescence titration of quinolone sensors with ornithine; type: binding; settings: Table 3; for Ka, Ornithine: 1:1 methanol-buffer
From the text: as §2

[6] = Fluorescence titration of quinolone sensors with diaminobutane; type: binding; settings: Table 3; for Ka, Diaminobutane: 1:1 methanol-buffer
From the text: as §2

[7] = Relative affinity of dimer sensors across amine guests; type: binding; settings: for guest selectivity (in words): comparison of guests, Tables 3 and 4
From the text: The certain exemplary dimer sensors IIIa-g have been probed spectroscopically by UV-vis and fluorescence titration experiments.
Water solubilizing groups, such as polyethylene groups, can be provided on the quinolone core in a straightforward synthetic manner. Binding constants and maximum fluorescence changes (Isat/I0) are provided in Table 4 for a few representative guests.

[8] = Fluorescence titration of quinolone sensors with lysine; type: binding; settings: Table 3; for Ka, Lysine: 1:1 methanol-buffer
From the text: as §3, §4, §5

[9] = UV-vis absorption / fluorescence titration of sensor Ia with dopamine; type: binding; settings: excited at 484 nm, FIG. 8
From the text: as §1, with “First, the sensors I produce a large chromophoric response when reacting with primary amines under physiological conditions. One” for “One”
The titration conditions are 10 μM sensor Ia with 100 mM Na2S2O3, 50 mM HEPES, 20 mM NaCl, pH=7.0, and at 37° C. […] Therefore, the inventive coumarin-based sensors I are selective for primary amines. See also, Org. Lett. 2004, 6(21), 3727-3730, which is incorporated herein by reference.
Table 2 also lists the fluorescence response of the sensor Ia as Isat/I0 (the maximum fluorescence change at saturation) for three different excitation wavelengths: 446 nm, 484 nm, and 495 nm. By exciting sensor Ia at the aldehyde absorption maximum (446 nm), a decrease in fluorescence has been observed for all analytes because the sensor shifted from the aldehyde to the iminium ion form. At higher wavelengths of excitation, simple amines give the typical large increase in fluorescence since the iminium ion preferentially absorbs at these wavelengths. […] The fluorescence quenching effect is found to be directly related to the catechol group. […]

[10] = test system: bovine adrenal chromaffin cells; test: Staining chromaffin cells with the simple monomer IIa (confocal microscopy); type: cell-based; settings: for staining of cells seen by confocal microscopy: 0.5 μM, 15 minutes, 37 C, excitation 488 nm
Experimental: The present invention further provides that the Quinolone-Monomer Sensors II can sense catecholamines and map their movements in a live cell. The initial proof of concept has been carried out by staining chromaffin cells with the simple monomer IIa. Specifically, several sets of chromaffin cells (which contain norepinephrine) were freshly prepared on coverslips and various concentrations of IIa in media were added.
A stock solution of 50 mM in DMSO was diluted in cell culture media to yield a final concentration of 0.5 uM. Cells were incubated in this solution at 37 C for 15 minutes and then the cells were washed with cell culture media without dye and observed using a confocal microscope at room temperature. The excitation wavelength was 488 nm.
Several sets of chromaffin cells (which contain norepinephrine) were freshly prepared on coverslips and various concentrations of 112 in media were added. […] The nuclei are clearly visible as dark regions. […] Given that the sensor should bind equally well to all amines, it is likely that that the sensor is actively accumulating in the vesicles.

Row | Compound | Isat/I0 (λex = 446 nm) [1] | Isat/I0 (λex = 484 nm) [1] | Isat/I0 (λex = 495 nm) [1] | Kn (association constant) [1] [M⁻¹] | Ka, Butylamine [4] [M⁻¹] | Isat/I0, Butylamine [4] | Isat/I0, Lysine [8] | Ka, Lysine [8] [M⁻¹] | other results
1 | NCCCCC(N)C(=O)O (stereo not shown) | 0.75 | 8.0 | 25 | 4.0 | – | – | – | – | –
2 | N[C@@H](CCC(=O)O)C(=O)O [glutamate] | – | – | – | – | – | – | – | – | binding affinity for sensor Ia (in words) [1]: low affinity
3 | CN(C)c1ccc2c(SCCCCCSc3c(C=O)c(=O)n(Cc4ccccc4)c4cc(N(C)C)ccc34)c(C=O)c(=O)n(Cc3ccccc3)c2c1 [Sensor IIIg] | – | – | – | – | 43 | 38 | 27 | 2756 | Isat/I0, Diaminopentane [2]: 18; Ka, Diaminopentane [2]: 2200 M⁻¹; Isat/I0, Diaminopropane [3]: 6.6; Ka, Diaminopropane ([3]; excitation 495 nm): 6700 M⁻¹; maximum fluorescence increase at saturation (Isat/I0) ([3]; excitation 495 nm, one-site binding isotherm, FIG. 11(b)): 6.6 fold; Isat/I0, Ornithine [5]: 20; Ka, Ornithine [5]: 2400 M⁻¹; Isat/I0, Diaminobutane [6]: 27; Ka, Diaminobutane [6]: 1477 M⁻¹; guest selectivity (in words) [7]: the preferred guest in both cases is lysine; extent of the difference, diamines bind better than butyl amine ([7]; ratio of binding constants, Table 3): 160 fold
4 | NCC(O)c1ccc(O)c(O)c1 (stereo not shown) [norepinephrine] | 0.39 | 0.46 | – | 6500 | – | – | – | – | –
5 | CNCC(O)c1ccc(O)c(O)c1 (stereo not shown) [epinephrine] | 0.73 | 0.76 | 0.77 | 5000 | – | – | – | – | –
6 | CCN(CC)c1ccc2c(CCCCCN(C)Cc3ccccc3B(O)O)c(C=O)c(=O)oc2c1 [Sensor Ia, 2-(((5-(7-(diethylamino)-3-formyl-2-oxo-2H-chromen-4-yl)pentyl)(methyl)amino)methyl)phenylboronic acid] | – | – | – | – | – | – | – | – | fluorescence on binding dopamine [9]: quenched upon binding dopamine
7 | NCCc1ccc(O)cc1 [Tyramine] | 0.41 | 8.0 | 52 | 250 | – | – | – | – | binding affinity for sensor Ia (in words) [1]: significantly reduced affinity
8 | N[C@H]1C(O)O[C@H](CO)[C@@H](O)[C@@H]1O (stereo partly shown) [glucosamine] | – | – | – | – | – | – | – | – | binding affinity for sensor Ia (in words) [1]: affinity similar to the simple amines
9 | NCCc1ccc(O)c(O)c1 [dopamine] | 0.50 | 0.60 | – | 3400 | – | – | – | – | –
10 | CN(C)c1ccc2c(SCCCSc3c(C=O)c(=O)n(Cc4ccccc4)c4cc(N(C)C)ccc34)c(C=O)c(=O)n(Cc3ccccc3)c2c1 [Sensor IIIf] | – | – | – | – | 31 | 26 | 24 | 1460 | Isat/I0, Diaminopentane [2]: 24; Ka, Diaminopentane [2]: 270 M⁻¹; Isat/I0, Diaminopropane [3]: 15; Ka, Diaminopropane ([3]; excitation 495 nm): 2100 M⁻¹; Isat/I0, Ornithine [5]: 22; Ka, Ornithine [5]: 550 M⁻¹; Isat/I0, Diaminobutane [6]: 24; Ka, Diaminobutane [6]: 690 M⁻¹; guest selectivity (in words) [7]: the preferred guest in both cases is lysine
11 | NC(CCC(=O)O)C(=O)O (stereo not shown) | 0.87 | 7.0 | 25 | 6.8 | – | – | – | – | –
12 | CN(C)c1ccc2c(Sc3ccccc3Sc3c(C=O)c(=O)n(Cc4ccccc4)c4cc(N(C)C)ccc34)c(C=O)c(=O)n(Cc3ccccc3)c2c1 [Sensor IIIe] | – | – | – | – | 30 | 10 | 10 | 800 | Isat/I0, Diaminopentane [2]: 4.3; Ka, Diaminopentane [2]: 350 M⁻¹; Isat/I0, Diaminopropane [3]: 8.5; Ka, Diaminopropane ([3]; excitation 495 nm): 350 M⁻¹; Isat/I0, Ornithine [5]: 7.3; Ka, Ornithine [5]: 680 M⁻¹; Isat/I0, Diaminobutane [6]: 10; Ka, Diaminobutane [6]: 160 M⁻¹
13 | CN(C)c1ccc2c(Sc3cccc(Sc4c(C=O)c(=O)n(Cc5ccccc5)c5cc(N(C)C)ccc45)c3)c(C=O)c(=O)n(Cc3ccccc3)c2c1 [Sensor IIId, meta-Benzenedithiol Dimer] | – | – | – | – | 72 | 8.8 | 4.7 | 2100 | Isat/I0, Diaminopentane [2]: 15; Ka, Diaminopentane [2]: 1200 M⁻¹; Isat/I0, Diaminopropane [3]: 16; Ka, Diaminopropane ([3]; excitation 495 nm): 3400 M⁻¹; Isat/I0, Ornithine [5]: 13; Ka, Ornithine [5]: 3300 M⁻¹; Isat/I0, Diaminobutane [6]: 15; Ka, Diaminobutane [6]: 1600 M⁻¹; guest selectivity (in words) [7]: preference for ornithine
14 | NC1C(O)OC(CO)C(O)C1O (stereo not shown) | 0.55 | 5.9 | 27 | 5.0 | – | – | – | – | –
15 | CCSc1c(C=O)c(=O)n(Cc2ccccc2)c2cc(N(C)C)ccc12 [Sensor IIa, 1-benzyl-7-(dimethylamino)-4-(ethylthio)-2-oxo-1,2-dihydroquinoline-3-carbaldehyde] | – | – | – | – | 76 | 32 | 41 | 129 | membrane / cell permeability [10]: membrane permeable; staining of cells seen by confocal microscopy [10]: selectively stained; also recorded: punctate staining; staining of cells seen by confocal microscopy ([10]; listed as 112): selectively stained; optimal sensor concentration ([10]; 15 minutes of equilibration time): 0.5 µM
